Test results taken from patent publication US12310934B2, “Methods of treatment of spontaneous preterm birth” (The Regents of the University of California, priority 2019, dated 2025).
“Also recorded” adds a separate entry of the source.

Columns and labels:
preterm birth = conditions: pregnant women, literature studies; cited from earlier work
[1] = tested on: LPS-induced fetal wastage in pregnant mice; assay: LPS-induced inflammation mouse model of fetal wastage; format: in vivo; conditions: 3× drug + LPS-100 compared with LPS-100 alone
Description: FIG. 3A and FIG. 3B depict results from LPS-induced inflammation mouse model of fetal wastage. Circles represent results from independent mouse pregnancies. Error bars represent mean ±SD. Comparisons were made using the Student's two-sided t-test. […] FIG. 3B: The LPS-100 group compared to the P4 positive control group (3×P4+LPS-100) and the lansoprazole treatment group (3×lansoprazole+LPS-100).
Statistical Analysis. Reversal scores were generated for sPTB-drug pairs using a non-parametric, rank-based method based on the Kolgomorov-Smirnov test. Reversal score p-values were obtained by comparing to a distribution of 100,000 random scores and then adjusted via FDR for multiple comparisons. […] To ensure that the significance of the score is specific to the drug in question, for one candidate drug, lansoprazole, we also compared 1,000 random input signatures to the lansoprazole profile. […] For testing the distributions in the mouse model studies, comparisons were made using the 2-tailed Student's t-test and adjusted via FDR for multiple comparisons. A P value less than 0.05 was considered significant.
Inflammation-induced mouse model validation of lansoprazole. Despite having the highest reversal score, cefotaxime shares few protein interactions. Lansoprazole has the next highest reversal score. Moreover, lansoprazole is available over-the-counter, whereas cefotaxime requires a prescription. […]

Structure (SMILES)	rate of preterm birth in past studies (preterm birth)	number of viable fetuses at E12.5 ([1]; listed as P4)	number of viable fetuses at E12.5 [1]
Clc1ccccc1C(c1ccccc1)(c1ccccc1)n1ccnc1 [clotrimazole]	significant reduction in the rate of PTB		
CC(=O)[C@H]1CC[C@H]2[C@@H]3CCC4=CC(=O)CC[C@]4(C)[C@H]3CC[C@]12C [progesterone]	effective in reducing the rate of sPTB	showed some effectiveness at recovering the number of viable fetuses	
Cc1c(OCC(F)(F)F)ccnc1C[S+]([O-])c1nc2ccccc2[nH]1 (stereo not drawn) [lansoprazole]			significantly effective in recovering the number of viable fetuses; also recorded: significantly (P<0.05) increase the number of viable fetuses
CN(C)C(=N)N=C(N)N [metformin]	reduce the rate of PTB compared with placebo		
Nc1nc2ncc(CNc3ccc(C(=O)N[C@@H](CCC(=O)O)C(=O)O)cc3)nc2c(=O)[nH]1 [folic acid]	possible reduction of preterm birth		
